Patent US7312358B2, “Pharmaceutically active sulfanilide derivatives” (Laboratoires Serono SA, priority 2000, dated 2007)

Legend:
[1] = biological target: T1, ratOT-R (Rattus norvegicus, UniProt P70536); test: Inhibition of IP3 (inositol tri-phosphate)-synthesis in HEK/EBNA-OTR cells; assay type: cell-based; settings: [3H]-inositol, oxytocin 10 nM
T1 construct: expressed in transfected cells; host or cells: HEK/EBNA cells
T1 sequence (P70536 1-388): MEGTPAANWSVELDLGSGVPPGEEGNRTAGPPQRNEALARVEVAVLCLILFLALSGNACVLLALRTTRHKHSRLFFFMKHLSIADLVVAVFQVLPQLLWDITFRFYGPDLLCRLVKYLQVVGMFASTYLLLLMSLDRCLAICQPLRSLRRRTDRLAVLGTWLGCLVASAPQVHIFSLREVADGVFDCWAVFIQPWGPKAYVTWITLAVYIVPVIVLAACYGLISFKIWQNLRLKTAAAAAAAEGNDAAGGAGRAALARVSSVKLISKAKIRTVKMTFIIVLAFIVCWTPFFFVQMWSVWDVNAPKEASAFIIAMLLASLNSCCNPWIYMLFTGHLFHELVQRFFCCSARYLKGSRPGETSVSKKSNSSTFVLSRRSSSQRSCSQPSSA
Description: e) Functional Assay No. 2: Inhibition of IP3 (Inositol Tri-Phosphate)-Synthesis in HEK/EBNA-OTR Cells
This assay intends to show the inhibition of the OT/OT-R mediated IP3 synthesis—being necessary to cause uterine contractions—by using test compounds of formula (I).
Stimulation of the cells: IIEK/EBNA OTR(rat or human) cells were plated out into costar 12-well plates, and equilibrated for 15-24 h with [^3H]-inositol radiolabel in medium without inositol supplement, with 1% FCS (0.5 ml/well). 4 μCi/ml were used. After this, the medium containing the label was aspirated. Then was added DMEM (without FCS, inositol), 20 mM Hepes (4-(2-hydroxyethyl)-1-piperazine-ethane-sulphonic acid), 1 mg/ml BSA containing 10 mM LiCl (freshly prepared), for […] at 37° C. The agonist (i.e. oxytocin used at a concentration of 10 nM) and the antagonists (i.e. the tests compounds of formula (1) used in a concentration of 10 μM, 1 μM, 300 nM, 100 nM, 10 nM, 1 nM, 100 pM, 10 pM, 3 pM) were added for the time required (15-45 min), followed by aspiration of the medium. Due to the […] of the OT receptor, the radiolabeled inositol is phosphorylated to yield IP3, the amount of the radiolabeled IP3 may be determined through the ensuing work-up. The reaction was stopped with 1 ml STOP-solution (i.e. 0.4 M perchloric acid), and let sit for 5-10 min at Room Temperature. Then, 0.8 ml were transferred into tubes containing 0.4 ml of neutralizing solution (0.72 M KOH/0.6M KHCO3), and the tubes vortexed and kept in the cold at least for 2 h.
Separation of IP's: The samples were spun in a table top centrifuge at 3000-4000 rpm for 15 min. 1 ml of the supernatant was transferred to new tubes containing 2.5 ml H2O. Packed resin (0.8 ml) was equilibrated with 20 ml H2O, and the whole samples poured onto the chromatography columns, thus separating the mixture. To discard free inositol, two washes with 10 ml H2O were carried out.
Elution of total IP's: The elution was achieved using 3 ml 1M ammonium formate/0.1M formic acid. The eluant was collected in scintillation counting tubes, followed by addition of 7 ml of scintillation liquid. The amount of IP3 is determined by a scintillating counter.
(§1) The activities of the sulfanilide derivatives claimed in the formula I were assessed using the above described in vitro biological assay. The values refer to the capacity of the example compounds according to formula I to effectively antagonize oxytocin-induced IP3-synthesis mediated by the oxytocin receptor.

[2] = biological target: T2, hOT-R (Homo sapiens, UniProt P30559); test: Inhibition of oxytocin mediated Ca2+-mobilization by FLIPR (HEK cells); assay type: cell-based; settings: fluo-4, OT 40 nM
T2 construct: expressed in transfected cells; host or cells: HEK (Human Embryonic Kidney) cells
T2 sequence (P30559 1-389): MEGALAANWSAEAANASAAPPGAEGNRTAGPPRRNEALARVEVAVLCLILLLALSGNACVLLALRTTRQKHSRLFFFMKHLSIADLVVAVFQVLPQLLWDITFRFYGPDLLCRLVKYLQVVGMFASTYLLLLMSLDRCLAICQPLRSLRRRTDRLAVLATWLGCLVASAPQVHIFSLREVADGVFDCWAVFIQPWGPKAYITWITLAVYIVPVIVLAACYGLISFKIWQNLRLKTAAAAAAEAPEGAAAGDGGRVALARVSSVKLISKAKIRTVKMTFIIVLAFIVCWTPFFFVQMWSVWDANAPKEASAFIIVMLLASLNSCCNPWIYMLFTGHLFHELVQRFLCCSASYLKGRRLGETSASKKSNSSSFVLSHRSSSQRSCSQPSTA
Source text: c) Functional Assay No. 1: Inhibition of Oxytocitn Mediated Ca^2+-Mobilization by FLIPR (Fluorescent Imaging Plate Reader)
(§2) FLIPR is a machine for fluorescence imaging using a laser that is capable of illuminating a 96-well plate and a means of simultaneously reading each well thus enabling rapid measurements on a large number of samples.
This assay intends to show the inhibition of the OT/OT-R mediated calcium mobilisation—being necessary to cause uterine contractions—by using test compounds of formula (I).
Preparing the plates: FLIPR-plates were pre-coated with PLL (Poly-L-Lysine) 10 μg/ml+0.1% gelatine to attach the HEK (Human Embryonic Kidney) cells for 30 min up to 2 days at 37° C. The cells were plated out into 96-well plates (60000 cells/well).
(§3) Labelling with fluo-4: 50 kg fluo-4 (fluorescent marker) were dissolved in 20 μl pluronic acid (20% in DMSO). The dissolved fluo-4 was then diluted in 10 ml DMEM (Dubecco's Minimal Essential Medium-F12 medium without FCS (Fetal Calf Serum). The medium was removed from the plates, followed by one wash with DNEM-F12 medium. Now, 100 μl of the DMEM-F12 medium containing fluo-4 were added and the cells incubated for 1.5-2 h (HEK-cells). The cells now contain the fluorescent marker.
(§4) Buffer: 145 mM NaCl, 5 mM KCl, 1 mM MgCl2, 10 mM Hepes, 10 mM Glucose, EGTA (Ethylene-bis oxyethylene nitrilo tetraacetic acid). Adjust to pH 7.4.
(§5) Performance of the assay: A minimum of 80 μl/well of antagonists (5×) in the above buffer (1×) were prepared (96-well plates). The antagonists were added to the well-plates at different concentrations (30 μM, 10 μM, 1 μM, 300 nM, 100 nM, 10 nM, 1 nM, 100 pM, 10 pM).
OT is added at a concentration of 40 nM.
(§6) The fluorescent marker being sensitive to the amount of Ca^2+ mobilized within the cell may be quantified by the FLIPR machine.
as §1, with “according to” for “claimed in the”, “intracellular Ca^2+-mobilization” for “IP3-synthesis”

[3] = biological target: T3, hV1a (Homo sapiens, UniProt P37288); test: In vitro competition binding assay on hV1a receptor with scintillating proximity assay; design: expressed in transfected cells; host or cells: CHO cells (membranes); settings: membranes from CHO cells expressing hV1a receptor; radiolabel [125I]-LVA; SPA; read-out: Binding Affinity Human V1a Ki
Description: b) In Vitro Competition Binding Assay on hV1a Receptor with Scintillating Proximity Assay
This assays allows to determine the affinity of the test compounds for the V1a receptor. Membranes from CHO cells expressing the hV1a receptor were resuspended in buffer containing 50 mM Tris-HCl, pH 7.4, 5 mM MgCl2 and 0.1% BSA (w/v). The membranes (5-10 μg) were mixed with 0.2 mg wheat-germ aglutinin (WGA) SPA bead (type A) and 0.03 nM of the radiolabel [^125I]-LVA (LVA being Linear Vasopressin Antagonist and is an analogue of AVP for competition binding experiments). Non-specific binding was determined in the presence of 1 μM AVP. The total assay volume was 100 μl. The plates (Corning 0 NBS plate) were incubated at room temperature for 2 hours and counted on a Mibrobeta plate counter. The tests compounds were used in concentrations of 30 μM, 10 μM, 1 μM, 300 nM, 100 nM, 10 nM, 1 nM, 100 pM, 10 pM. The competition binding data were analysed using the iterative, nonlinear, curve-fitting program, Graph pad “Prism”.
The binding affinities to the Via receptor of the sulfanilide derivatives claimed in the formula I were assessed using the above described in vitro biological assay. The values refer to the binding affinity (IC50; HM) of the example compounds according to formula I to the V1a receptor. From the values shown in Table 1 it can be derived that said test compounds according to formula I do show a significant binding to the Via receptor.

[4] = biological target: T3, hV1a; test: Inhibition of vasopressin-mediated Ca2+-mobilization by FLIPR (CHO cells expressing hV1a); assay type: cell-based; design: expressed in transfected cells; host or cells: CHO cells; settings: fluo-4, AVP 40 nM
Source text: d) Functional Assay No. 1: Inhibition of Vasopressin-Mediated Ca^2+-mobilization by FLIPR (Fluorescent Imaging Plate Reader)
as §2
This assay intends to show the inhibition of the AVP/V1a-R mediated calcium mobilisation—being necessary to cause uterine contractions—by using test compounds of formula (1).
Preparing the plates: FLIPR-plates were pre-coated with PLL (Poly-L-Lysine) 10 μg/ml+0.1% gelatine to attach the CHO cells (expessing hV1a) for 30 min up to 2 days at 37° C. The cells were plated out into 96-well plates (60000 cells/well).
as §3, with “μg” for “kg”, “DMEM-F12” for “DNEM-F12”, “1-1.5” for “1.5-2”, “(CHO-cells).” for “(HEK-cells).”
as §4, §5
AVP is added at a concentration of 40 nM.
as §6
as §1, with “according to” for “claimed in the”, “AVP-induced intracellular Ca^2+-mobilization” for “oxytocin-induced IP3-synthesis”, “VIa-receptor.” for “oxytocin receptor.”

T3 sequence (P37288 whole entry): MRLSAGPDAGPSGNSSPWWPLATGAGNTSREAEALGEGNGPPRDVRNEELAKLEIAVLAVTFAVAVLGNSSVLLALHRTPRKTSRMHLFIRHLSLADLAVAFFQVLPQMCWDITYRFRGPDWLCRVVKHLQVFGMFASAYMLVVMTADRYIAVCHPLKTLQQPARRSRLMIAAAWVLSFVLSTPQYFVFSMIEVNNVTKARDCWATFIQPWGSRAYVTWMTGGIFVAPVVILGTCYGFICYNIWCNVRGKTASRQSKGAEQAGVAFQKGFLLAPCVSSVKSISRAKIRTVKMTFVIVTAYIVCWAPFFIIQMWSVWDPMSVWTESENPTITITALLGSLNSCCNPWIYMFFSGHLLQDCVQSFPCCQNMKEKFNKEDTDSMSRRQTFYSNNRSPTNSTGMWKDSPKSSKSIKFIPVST

IC50 [1] | IC50 [4] | Structure (SMILES) | other results
48 nM |  | C/C(=N\NC(=O)CN(c1ccc(Br)cc1)S(=O)(=O)c1ccccc1)c1ccccc1O [drawing 168, N-(4-bromophenyl)-N-(2-{2-[1-(2-hydroxyphenyl)ethylidene]hydrazino}-2-oxoethyl)benzenesulfonamide] | 
110 nM |  | Cc1c(Cl)cccc1NC(=O)CN(c1ccc(Br)cc1)S(=O)(=O)c1ccccc1 [2-[Benzenesulfonyl-(4-bromo-phenyl)-amino]-N-(3-chloro-2-methyl-phenyl)-acetamide] | IC50 [2]: 353 nM
 |  | COc1ccc(S(=O)(=O)N(CC(=O)N/N=C/c2ccccc2O)c2ccc(Cl)cc2)cc1OC [Example 37, N-(4-chlorophenyl)-N-{2-[(2E)-2-(2-hydroxybenzylidene)hydrazino]-2-oxoethyl}-3,4-dimethoxybenzenesulfonamide] | Ki [3]: 550 nM; melting point: 188 to 189 °C
 | 90 nM | COc1ccc(N(CC(=O)Nc2ccc(Cl)cc2C)S(=O)(=O)c2ccccc2)cc1 [2-[Benzenesulfonyl-(4-methoxy-phenyl)-amino]-N-(4-chloro-2-methyl-phenyl)-acetamide] | 
300 nM |  | O=C(CN(c1ccccc1)S(=O)(=O)c1ccccc1)N/N=C1\C(=O)Nc2ccccc21 [N-{2-oxo-2-[2-(2-oxo-1,2-dihydro-3H-indol-3-ylidene)hydrazino]ethyl}-N-phenylbenzenesulfonamide] | 
 | 550 nM | COc1ccc(/C=N/NC(=O)CN(c2cccc(Cl)c2)S(=O)(=O)c2ccccc2)cc1OC [N-(3-Chloro-phenyl)-N-(3,4-dimethoxy-benzylidene-hydrazinocarbonylmethyl)-benzenesulfonamide] | 
 | 370 nM | C/C(=N/NC(=O)CN(c1cccc(Cl)c1)S(=O)(=O)c1ccccc1)c1ccccc1O [N-(3-Chloro-phenyl)-N-[1-(2-hydroxy-phenyl)-ethylidene-hydrazinocarbonylmethyl]-benzenesulfonamide] | 
 | 440 nM | COc1ccc(/C=N/NC(=O)CN(c2cccc(Br)c2)S(=O)(=O)c2ccccc2)cc1OC [N-(3-Bromo-phenyl)-N-(3,4-dimethoxy-benzylidene-hydrazinocarbonylmethyl)-benzenesulfonamide] | 

Structure (SMILES) | IC50 [1] | IC50 [4] | other results
Cc1c(Cl)cccc1NC(=O)CN(c1ccc(Cl)cc1)S(=O)(=O)c1ccccc1 [2-[Benzenesulfonyl-(4-chloro-phenyl)-amino]-N-(3-chloro-2-methyl-phenyl)-acetamide] | 320 nM |  | IC50 [2]: 443 nM
